Laboratory results: patent publication US9376376B2, “Substitute diphenylamine compounds use thereof as antitumor agents” (SINOCHEM CORPORATION, priority 2012, dated 2016)

Assays:
[1] = test system: leukemia HL-60 cells; experiment: In vitro cell inhibition assay (MTT method), HL-60; assay type: cell-based, human; conditions: 48 h
Procedure: (§1) The human cancer cell lines used for this assay were lung cancer A549 and leukemia HL-60.
(§2) The A549 or HL-60 cells were picked up from cell incubator, after washed for twice using PBS, cells were digested by 0.25% trypsin, and then add medium to terminate the digestion. After cells were collected using centrifuge and re-suspended, count cells under inverted microscope and add medium to make a density was 5×10^4 cells/mL. After 100 μL aliquots were added to each well of 96-well microtiter plates, cells were cultured in 5% incubator for overnight at 37° C., then the different concentration compounds were added to each well. After incubation for 48 h, MTT solution was added to each well and plates were then incubated for 4 h. The MTT tetrazolium was reduced to formazan by living cells. Then the formazan crystals were dissolved though adding DMSO to each well. The absorbance was read at 570 nm with a microplate reader.

[2] = test system: lung cancer A549 cell; experiment: In vitro cell inhibition assay (MTT method), A549; assay type: cell-based, human; conditions: 48 h incubation
Procedure: as §1, §2

In the case of `N#Cc1cc(Cl)c(Nc2c(Cl)c(Cl)c(C#N)c(Cl)c2C#N)c(Cl)c1` [Compound 6-98], the “Proliferation inhibitory effect of the compounds on HL-60 cells (% of Control)” value ([1]; concentration 0.01 μM) is reported as −2.5 % of Control, the “Proliferation inhibitory effect of the compounds on HL-60 cells (% of Control)” value ([1]; concentration 0.1 μM) is reported as 10.1 % of Control and the “Proliferation inhibitory effect of the compounds on HL-60 cells (% of Control)” value ([1]; concentration 1 μM) is reported as 30.0 % of Control. For the same compound, the “Proliferation inhibitory effect of the compounds on HL-60 cells (% of Control)” value ([1]; concentration 10 μM) was 91.7 % of Control, the “Proliferation inhibitory effect of the compounds on HL-60 cells (% of Control)” value ([1]; concentration 100 μM) was 95.1 % of Control and the “Proliferation inhibitory effect of the compounds on A549 cell (% of Control)” value ([2]; 0.01 μM) was −2.5 % of Control. For the same compound, the “Proliferation inhibitory effect of the compounds on A549 cell (% of Control)” value ([2]; 0.1 μM) was −0.7 % of Control, the “Proliferation inhibitory effect of the compounds on A549 cell (% of Control)” value ([2]; 1 μM) was 11.7 % of Control and the “Proliferation inhibitory effect of the compounds on A549 cell (% of Control)” value ([2]; 10 μM) was 90.1 % of Control. For the same compound, the “Proliferation inhibitory effect of the compounds on A549 cell (% of Control)” value ([2]; 100 μM) was 93.2 % of Control.
In the case of `Cc1c(Cl)c([N+](=O)[O-])cc([N+](=O)[O-])c1Nc1ccc(C(F)(F)F)cc1` [Compounds 22-24], the “Proliferation inhibitory effect of the compounds on HL-60 cells (% of Control)” value ([1]; concentration 0.01 μM) is reported as −22.4 % of Control, the “Proliferation inhibitory effect of the compounds on HL-60 cells (% of Control)” value ([1]; concentration 0.1 μM) is reported as −16.7 % of Control and the “Proliferation inhibitory effect of the compounds on HL-60 cells (% of Control)” value ([1]; concentration 1 μM) is reported as −9.3 % of Control. For the same compound, the “Proliferation inhibitory effect of the compounds on HL-60 cells (% of Control)” value ([1]; concentration 10 μM) was 82.4 % of Control and the “Proliferation inhibitory effect of the compounds on HL-60 cells (% of Control)” value ([1]; concentration 100 μM) was 94.3 % of Control.
In the case of `Cc1c(Cl)c([N+](=O)[O-])cc([N+](=O)[O-])c1Nc1ccc(C#N)cc1Cl` [Compounds 22-61], the “Proliferation inhibitory effect of the compounds on HL-60 cells (% of Control)” value ([1]; concentration 0.01 μM) is reported as 5.2 % of Control, the “Proliferation inhibitory effect of the compounds on HL-60 cells (% of Control)” value ([1]; concentration 0.1 μM) is reported as 7.8 % of Control and the “Proliferation inhibitory effect of the compounds on HL-60 cells (% of Control)” value ([1]; concentration 1 μM) is reported as 11.0 % of Control. For the same compound, the “Proliferation inhibitory effect of the compounds on HL-60 cells (% of Control)” value ([1]; concentration 10 μM) was 85.7 % of Control and the “Proliferation inhibitory effect of the compounds on HL-60 cells (% of Control)” value ([1]; concentration 100 μM) was 89.8 % of Control.
`Cc1c(Cl)c([N+](=O)[O-])cc([N+](=O)[O-])c1Nc1c(Cl)cc(C#N)cc1Cl` [Compounds 22-104] was tested, and the “Proliferation inhibitory effect of the compounds on HL-60 cells (% of Control)” value ([1]; concentration 0.01 μM) was 4.1 % of Control, the “Proliferation inhibitory effect of the compounds on HL-60 cells (% of Control)” value ([1]; concentration 0.1 μM) was −7.3 % of Control and the “Proliferation inhibitory effect of the compounds on HL-60 cells (% of Control)” value ([1]; concentration 1 μM) was −2.1 % of Control. For the same compound, the “Proliferation inhibitory effect of the compounds on HL-60 cells (% of Control)” value ([1]; concentration 10 μM) was 60.5 % of Control and the “Proliferation inhibitory effect of the compounds on HL-60 cells (% of Control)” value ([1]; concentration 100 μM) was 94.0 % of Control.
`COC(=O)c1cc(Cl)c(Nc2c([N+](=O)[O-])cc([N+](=O)[O-])c(Cl)c2C)c(Cl)c1` [Compounds 22-107] was tested, and the “Proliferation inhibitory effect of the compounds on HL-60 cells (% of Control)” value ([1]; concentration 0.01 μM) was 2.8 % of Control, the “Proliferation inhibitory effect of the compounds on HL-60 cells (% of Control)” value ([1]; concentration 0.1 μM) was −9.3 % of Control and the “Proliferation inhibitory effect of the compounds on HL-60 cells (% of Control)” value ([1]; concentration 1 μM) was −7.0 % of Control. The “Proliferation inhibitory effect of the compounds on HL-60 cells (% of Control)” value ([1]; concentration 10 μM) was 65.4 % of Control and the “Proliferation inhibitory effect of the compounds on HL-60 cells (% of Control)” value ([1]; concentration 100 μM) was 94.4 % of Control.
With `N#Cc1ccccc1Nc1c(Cl)c(Cl)c(C#N)c(Cl)c1C#N` [Compound 6-10] the “Proliferation inhibitory effect of the compounds on HL-60 cells (% of Control)” value ([1]; concentration 0.01 μM) was 21.8 % of Control, the “Proliferation inhibitory effect of the compounds on HL-60 cells (% of Control)” value ([1]; concentration 0.1 μM) was 16.1 % of Control and the “Proliferation inhibitory effect of the compounds on HL-60 cells (% of Control)” value ([1]; concentration 1 μM) was 9.8 % of Control. For the same compound, the “Proliferation inhibitory effect of the compounds on HL-60 cells (% of Control)” value ([1]; concentration 10 μM) was 78.5 % of Control and the “Proliferation inhibitory effect of the compounds on HL-60 cells (% of Control)” value ([1]; concentration 100 μM) was 77.1 % of Control.
For `N#Cc1c(Cl)c(Cl)c(Nc2ccccc2Cl)c(C#N)c1Cl` [Compound 6-3], the “Proliferation inhibitory effect of the compounds on HL-60 cells (% of Control)” value ([1]; concentration 0.01 μM) was −7.1 % of Control, the “Proliferation inhibitory effect of the compounds on HL-60 cells (% of Control)” value ([1]; concentration 0.1 μM) was −6.3 % of Control and the “Proliferation inhibitory effect of the compounds on HL-60 cells (% of Control)” value ([1]; concentration 1 μM) was −2.1 % of Control. The “Proliferation inhibitory effect of the compounds on HL-60 cells (% of Control)” value ([1]; concentration 10 μM) was 72.2 % of Control and the “Proliferation inhibitory effect of the compounds on HL-60 cells (% of Control)” value ([1]; concentration 100 μM) was 94.5 % of Control.
With `Cc1c(Cl)c([N+](=O)[O-])cc([N+](=O)[O-])c1Nc1c(Cl)cc(Cl)cc1Cl` [Compounds 22-98] the “Proliferation inhibitory effect of the compounds on HL-60 cells (% of Control)” value ([1]; concentration 0.01 μM) was −7.3 % of Control, the “Proliferation inhibitory effect of the compounds on HL-60 cells (% of Control)” value ([1]; concentration 0.1 μM) was 1.3 % of Control and the “Proliferation inhibitory effect of the compounds on HL-60 cells (% of Control)” value ([1]; concentration 1 μM) was 9.5 % of Control. For the same compound, the “Proliferation inhibitory effect of the compounds on HL-60 cells (% of Control)” value ([1]; concentration 10 μM) was 77.7 % of Control and the “Proliferation inhibitory effect of the compounds on HL-60 cells (% of Control)” value ([1]; concentration 100 μM) was 91.0 % of Control.
